Earlier results, collected in patent US8486874B2, “Water-soluble processing oil agent” (Idemitsu Kosan Co., Ltd., priority 2009, dated 2013).

Legend:
[1] = Peroral rat
[2] = Percutaneous rabbit
[3] = compared with dicyclohexylamine, Table 1 data

SMILES	LD50 [1]	LDLo [2]	Toxicity relative to dicyclohexylamine [3]
C1CCC(NC2CCCCC2)CC1 [Dicyclohexylamine, reference compound]	LD50 373 mg/kg^1)	–	–
CN(C1CCCCC1)C1CCCCC1 [Methyldicyclohexylamine]	LD50 446 mg/kg^1)	LDLo 2 g/kg^1)	considerably lower
